Values quoted from earlier work, collected in patent publication US7135437B2, “Stable liquid pesticide compositions” (Monsanto Technology LLC, priority 2000, dated 2006).

Conditions: at 20° C.

## O=C(O)CNCP(=O)([O-])O.[K+] [glyphosate potassium salt]
  solubility in pure water, glyphosate acid equivalent: about 44 % glyphosate acid equivalent (a.e.) by weight
As salt
  solubility in pure water: about 54 % by weight
